Patent publication US20180193336A1, “SPRAY DRY FORMULATIONS” (Pulmokine, Inc., priority 2013, published 2018)
Converted amounts (≈) assume the structure as drawn. Like-named read-outs stand apart in the source and are kept apart here.

Tests used:
[1] = tested on: PDGFBB stimulated AKT phosphorylation; assay: In cell Western, PDGFBB stimulated AKT phosphorylation in human fetal lung fibroblasts; assay type: cell-based; conditions: for IC50 for inhibiting PDGFBB stimulated AKT phosphorylation relative to imatinib: fetal human lung fibroblasts, FIG. 18
Experimental: HLFs were maintained in subculture at no more than 6 passages in DMEM with 5% FBS and 4 mM Glutamax at 37° C., 5% CO2. HLFs were plated and grown to 70-80% confluence in 96 well plates then serum-starved for 48 hours. […] Antibodies were detected using IRDye 680LT goat anti-mouse IgG and IRDye 800 W goat α-rabbit IgG conjugated antibodies. After washing, the signal was quantified using an Odyssey Infrared Imaging System (LI-COR). Phosphoprotein signal (800 nm) was normalized to total protein signal (700 nm) acquired from each well and experimental duplicates on same plate were averaged and reported.

rat MCT+PN model [2] = assay: Telemetry of pulmonary artery pressure in rat MCT+PN model; assay type: in vivo; conditions: rat MCT+PN
Experimental: Pneumonectomy and implantation of a TRM53P telemetry monitor in the pulmonary artery (Telemetry Research, New Zealand and ADInstruments, Colorado) was carried out in rats. Two weeks after MCT, PK10453 (Structure 2) was administered three times daily for 1 week. […] The two groups underwent 4 min exposures of either the vehicle control or PK10453 (Structure 2). Sampling of PA pressure was performed 5 min before each morning dose in ambulatory animals in room air (estimated atmospheric pressure 716 mm Hg based on elevation of animal facility). […] Telemetry data was obtained for 10 min daily before each morning dose for this protocol.

[3] = tested on: PDGFAA stimulated phosphorylation of ERK1 and ERK2; assay: PDGFAA stimulated phosphorylation of ERK1 and ERK2 in human fetal lung fibroblasts; assay type: cell-based; conditions: 1 uM; PDGFAA 10 ng/ml
From the text: (§1) Data shown are mean±SEM. […] PK10453=structure 2; PK10571=structure 2a. Platelet derived growth factor receptor alpha=PDGFR-alpha=PDGFR-α=PDGF receptor alpha=PDGF alpha receptor. Platelet derived growth factor receptor beta=PDGFR-beta=PDGFRβ=PDGF receptor beta=PDGF beta receptor.

rat MCT+PN model [4] = assay: Inhaled PK10571 dry powder in rat MCT+PN model, PA telemetry; assay type: in vivo
From the text: We performed a pre-clinical efficacy study of inhaled PK10571 in the rat MCT+PN model. We used the MCT+PN model, because in this model, neointimal pulmonary arteriole proliferative lesions occur in a manner similar to what is observed in the human disease. In this experiment, drug treatment was started later than in prior studies of PK10453.
In prior studies, PK10453 was started 2 weeks after MCT injection (3 weeks after pneumonectomy). In the PK10571 SDD study, treatment was started 3 weeks after MCT injection (4 weeks after pneumonectomy). It should be noted that pneumonectomized rats given MCT develop severe PAH starting two weeks after the MCT injection. (In MCT only rats, it takes longer for PAH to develop (i.e., 3 weeks)). […] A. PK10453 study time drug treatment started (See Pulm Circ 2014 8(1):82-102). B. PK10571 SDD study time treatment started in MCT+PN model. C. Start time typical for MCT only model. Data acquired via telemetry monitoring of PA pressures in ambulatory rats. (Note: Day 11 in MCT+PN model data not shown).
PK10571 dry powder with leucine and trehalose excipient was administered by nose only inhalation 30 minutes (on average) twice a day to the rats, via a Vilnius Dry Powder Generator connected to a CH Technologies Exposure tower. Estimated average API dose deposited in lung 0.25 mg/kg (calculated from measurement of aerosol concentration and minute ventilation of pneumonectomized rat) with estimated human dose equivalent (HED) 0.04 mg/kg. […] The mode of death of these animals has not been fully characterized but may be related to RV failure. We have noted that although pulmonary pressures rise gradually and progressively over a period of two weeks after MCT injection, in the third week, animals may enter a “crisis” phase and die suddenly. […] This finding confirms the disease modifying potential of PK10571. One animal in the drug treatment group was euthanized for weight loss on day 5 as per our preset criteria.

physchem = assay: physchem
From the text: To maximize the amount of hydrophobic shell former (Leucine) on the surface, a higher ratio is desired.

[5] = tested on: PDGFBB stimulated phosphorylation of ERK1 and ERK2; assay: PDGFBB stimulated phosphorylation of ERK1 and ERK2 in human fetal lung fibroblasts; assay type: cell-based
From the text: as §1

PDGFRbeta = PDGFRbeta (Homo sapiens, UniProt P09619); conditions: FIG. 25
Chain of PDGFRbeta (P09619 600-962 limits assumed): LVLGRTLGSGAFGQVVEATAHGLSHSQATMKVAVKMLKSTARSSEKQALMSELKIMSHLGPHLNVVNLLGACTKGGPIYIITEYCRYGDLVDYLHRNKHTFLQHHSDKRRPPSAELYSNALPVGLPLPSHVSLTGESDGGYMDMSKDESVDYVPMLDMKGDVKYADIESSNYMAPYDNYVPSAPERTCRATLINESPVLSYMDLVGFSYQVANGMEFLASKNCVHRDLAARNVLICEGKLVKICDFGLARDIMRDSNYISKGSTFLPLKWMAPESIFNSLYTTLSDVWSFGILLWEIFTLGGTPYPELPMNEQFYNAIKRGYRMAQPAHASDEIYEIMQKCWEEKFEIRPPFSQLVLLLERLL
Experimental: A Z-lyte kinase assay was performed to determine the inhibition of PDGFRalpha and PDGFRbeta mediated phosphorylation by PK10453 (Structure 2). Ten point titration curves were modeled to calculate the IC50 (Invitrogen Select Screen®).

[6] = tested on: SU5416/hypoxia/normoxia model of PAH; assay: PK10571 in SU5416/hypoxia/normoxia model of PAH; assay type: in vivo, rat
Experimental: The SU5416/hypoxia/normoxia model of PAH is well described in the field, is considered to accurately reflect the human disease of PAH and to predict drug response in humans^25. Study animals were administered SU5416 20 mg/kg SQ and placed in a COY Hypoxia chamber at FiO2=10%. Animals studied after 1 week hypoxia; 2 weeks hypoxia/12 days normoxia; 3 weeks hypoxia/12 days normoxia; and 3 weeks hypoxia/5 weeks normoxia. End of study procedures included acquisition of right ventricular pressure volume loops with a Scisense Admittance system. The RV PV loops were acquired on ventilated open chest animals with isoflurane anesthesia and 100% F1O2. In addition a subset of animals had implantation of DSI PAC40 telemetry catheters in the PA. In this subset, PA pressures were monitored continuously in ambulatory animals, and analysis of PA pressures before and after dosing was performed for 7 days of dosing.
PK10571/trehalose/leucine dry powder or Vehicle was administered twice a day via the CH Technologies Exposure System, in the SUGEN5416/2 week hypoxia/normoxia 2 week subgroups.
In the SU5416 model we also examined microfil radiopaque casts of the pulmonary arterial circulation with microCT and 3D reconstruction. The casts were made after flushing the pulmonary circulation of the rats with heparinized saline followed by sodium nitroprusside to maximally vasodilate the pulmonary arterial vessels. Microfil was then injected with a syringe pump at 0.2 ml/min until the proximal PA was engorged and a lattice of microfil was visible in the peripheral lung. The chest was filled with ice saline until the microfil was cured. […] Vehicle treated animal on left. PK10571 treated animal on right. Resolution: 20 microns.

[7] = tested on: phosphorylated PDGF receptor beta (Y751, Y1021); assay: Western blot of phosphorylated PDGF receptor beta in adult human lung fibroblasts; conditions: HLFa; 0.01-10 uM, 30 min pre-treatment; 10 ng/mL PDGF BB 7.5 minutes
Experimental: FIG. 40 PANEL A illustrates pPDGFrBeta (Y751), Beta-Actin, Stripped and reprobed with Total PDGFrBeta, note that 25 ug/lane was loaded, with a 1:500 dilution of pPDGFrBeta(Y751) antibody during incubation.
FIG. 40 PANEL B illustrates pPDGFrBeta (Y1021), Beta-Actin, Stripped and reprobed with Total PDGFrBeta, note that 25 ug/lane was loaded, with a 1:500 dilution of pPDGFrBeta(Y1021) antibody during incubation.

[8] = tested on: rat monocrotaline pneumonectomy model; conditions: inhaled twice daily for ten days
Experimental: Study protocol: male Sprague Dawley rats underwent left pneumonectomy and 10 days later were given monocrotaline 50 mg/kg IP.
Plethysmography was performed with an EMKA 2 chamber body plethysmograph and data acquired with IOX software. Statistical analysis was performed with XLSTAT.

[9] = typically; cited from earlier work
[10] = dry powder with leucine and trehalose, inhaled twice a day, within treatment group

With COc1cc(-c2cncc(N[C@@H](C)c3cccc(NC(=O)c4cnc(C#N)nc4)c3)n2)ccc1O [PK10467] the “IC50 for inhibiting PDGFBB stimulated AKT phosphorylation relative to imatinib” value [1] was “lower IC50 concentration compared to imatinib”.

For Cc1ccc(NC(=O)c2ccc(CN3CCN(C)CC3)cc2)cc1Nc1nccc(-c2cccnc2)n1 [Imatinib, reference compound], the “efficacy by inhalation in the MCT+PN model” value (rat MCT+PN model [2]) was “not effective” and the “decrease of PDGF AA stimulated ppERK1 and ppERK2 formation” value [3] was “equally effective”.

With COc1cc(-c2cncc(N[C@@H](C)c3cccc(NC(=O)c4cncc(C)c4)c3)n2)ccc1C [PK10569] the “IC50 for inhibiting PDGFBB stimulated AKT phosphorylation relative to imatinib” value [1] was “lower IC50 concentration compared to imatinib”.

For COc1ccc(-c2cncc(N[C@@H](C)c3cccc(NC(=O)c4cncc(C)c4)c3)n2)cc1OC [PK10571], the “effect on pulmonary artery pressures” value (rat MCT+PN model [4]; dry powder containing leucine and trehalose) was “effective in lowering pulmonary artery pressures”, the “reduction of PA pressure, day 8 compared to day 1” value (rat MCT+PN model [4]; [10]) was 22% and the “reduction of PA pressure, day 8 vs. day 3” value (rat MCT+PN model [4]; [10]) was 35%. The “PA systolic pressure post dose (approximately 1 hour) vs pre-dose” value (rat MCT+PN model [4]; early stage of treatment, up to day 4) was “transient decrease”, the IC50 ([1]; Homo sapiens, Fibroblast, FIG. 26, each concentration in duplicate, read-out: IC50, PDGF BB stimulated pAKT in human lung fibroblasts) was 50 nM and the “IC50 for inhibiting PDGFBB stimulated AKT phosphorylation relative to imatinib” value [1] was “lower IC50 concentration compared to imatinib”. For the same molecule, the solubility (physchem; aqueous with cosolvent or surfactant or cyclodextrin) was 50 mg/mL (≈ 106 mM), the solubility (physchem; organic solvent or mixture) was 50 mg/mL (≈ 106 mM) and the solubility in water (physchem; pH 7) was “insoluble”. For the same molecule, the “decrease of PDGF BB stimulated ppERK1 and ppERK2 relative to imatinib” value ([5]; 1 uM and 10 uM) was “more effective”, the “decrease of PDGFBB stimulated ppERK1 formation” value ([5]; 1 uM, PDGF BB 10 ng/ml) was “effective” and the “potency against PDGFR beta kinase domain relative to imatinib” value (PDGFRbeta) was “more potent than imatinib”. The “RV end systolic pressure compared to vehicle” value ([6]; SU5416, 2 weeks hypoxia, 12 days normoxia, PK10571/trehalose/leucine dry powder twice a day) was “significant reduction”, the “PA systolic pressure after dosing compared to before dosing” value ([6]; on some days, telemetry) was “significant decrease” and the “3D microCT of pulmonary arterial vasculature” value ([6]; preliminary, compared to vehicle treated animal) was “more third and fourth generation branches”. The “phosphorylation of PDGF receptor beta” value [7] was “decreases phosphorylation”, the “decrease of PDGF AA stimulated ppERK1 and ppERK2 formation” value [3] was “equally effective” and the “airway resistance compared to vehicle” value [8] was “no significant difference”. The “minute ventilation compared to vehicle” value [8] was “no significant difference”, the “respiratory rate compared to vehicle” value [8] was “lower” and the “tidal volume compared to vehicle” value [8] was “significantly improved”.

For C=CS(=O)(=O)NCc1ccc(C(=O)Nc2cccc([C@H](C)Nc3cncc(-c4ccc(O)c(OC)c4)n3)c2)cc1 [PK10468], the “IC50 for inhibiting PDGFBB stimulated AKT phosphorylation relative to imatinib” value [1] was “lower IC50 concentration compared to imatinib”.

In the case of CC(C)C[C@H](N)C(=O)O [L-Leucine], the “concentration obtained with a 2:1 EtOH:H2O mixture” value (physchem) is listed as “up to 13 mg/ml”, the “concentration at which precipitated, 1:1 v:v EtOH:H2O solution” value (physchem; room temperature) is listed as 5 to 10 mg/mL and the “solubility in EtOH” value [9] is listed as “insoluble”. For the same molecule, the solubility in water [9] was 25 to 30 mg/mL.
